Consider 3 molecules from patent US11524080B2 (priority 2018, dated 2022).

By Tmax is commonly meant the time from dosing to the highest level. What is called Cmax is the peak of the concentration-time curve.

≈ marks a conversion by molar mass, not a printed value. Where two headings read alike, the source gives them in different places.

The subject of one data set is B. pseudomallei K96243. Description: microbe, parasite or virus in culture. The format is cell-based. The following applies: Burkholderia pseudomallei.
For data set [1] the following is noted: mouse, in vivo.
For data set [2] the following is noted: mouse, in vivo, po.
The test system of data set [3] is F. tularensis SCHU-S4. Nature of the data set: microbe, parasite or virus in culture. Format: cell-based. The following applies: Francisella tularensis, SCHUS4.
Data set [4] has as its system F. tularensis SCHU-S4. Nature of the data set: microbe, parasite or virus in culture. The following applies: Francisella tularensis, SCHUS4. The format is cell-based. The source holds these as a separate data set.
For data set [5] the following is noted: mouse, in vivo, 50 mg/kg.
A further data set can be described thus: in vivo. The following applies: female, Balb/c, mouse.

On to `O=C(O)c1cn(C2CC2)c2cc(N3CCNCC3)c(F)cc2c1=O` [Free ciprofloxacin, ciprofloxacin], for which the MBC in the data set on B. pseudomallei K96243 came out at 16 µg/mL (≈ 48.3 µM). The “Effect on body weight” value in data set [1] is recorded as “significantly induced weight loss”. For the same molecule, in data set [2], the “Mean weight gain on Day 36” value is recorded as 2.4% and the “Mean weight loss of starting weight by Day 8” value (from here on “Mean weight loss”) turned out to be 4.4%.

Consider `C[C@H]1c2cccc(O)c2C(=O)C2=C(O)[C@]3(O)C(=O)C(C(N)=O)=C(O)[C@@H](N(C)C)[C@@H]3[C@@H](O)[C@@H]21` [Free doxycycline, doxycycline hyclate], for which the MIC against F. tularensis SCHU-S4 [3] stood at 0.5 µg/mL (≈ 1.13 µM). The same molecule showed an MBC against F. tularensis SCHU-S4 [4] of over 64 µg/mL. The “Effect on body weight” value in data set [1] is listed as “strong indication for doxycycline-based weight loss”. Besides, in data set [1] (ip), the Necropsy findings entry was “peritoneal adhesions involving spleen, pancreas, intestines and kidney”. In data set [1] (po), the Necropsy findings entry is “two mice had slightly rounded edges to the lobes of the liver”. In data set [2], the “Mean weight gain on Day 36” value is 1.7% and the “Mean weight loss” value was 5.2%.

Consider `C[C@H]1COc2c(N3CCN(C)CC3)c(F)cc3c(=O)c(C(=O)O)cn1c23` [Free levofloxacin, levofloxacin], for which the AUC in data set [5] (ip) was determined as 122.1861 µg/mL/h; in data set [5] (po), 119.6124 µg/mL/h. Also, the Tmax amounted to 18 min in data set [5] (ip) and 36 min in data set [5] (po). The “Effect on body weight” value in data set [1] is “minimal”. Further, in data set [2], the “Mean weight gain on Day 36” value came out at 3.2%. Besides, in data set [2], the “Mean weight loss” value turned out to be 3.3%. Also, the Cmax was 50200 ng/mL in the data set “in vivo” (ip, 50 mg/kg); 2100 ng/mL in the data set “in vivo” (ip, 100 mg/kg); 46100 ng/mL in “in vivo” (po, 50 mg/kg).
